Source: patent US6451781B1, “Substituted acylguanidines, process for their preparation, their use as medicaments or diagnostics, and medicaments comprising them” (Aventis Pharma Deutschland GmbH, priority 1999, dated 2002)

Legend:
[1] = biological target: T1, human Na+/H+ exchanger (subtype 3; NHE-3) (Homo sapiens, UniProt P48764); test: Inhibition of the NHE antiport subtype 3: intracellular pH recovery after acid load (BCECF) in stably transfected LAP1 cells; type: cell-based; details: human NHE-3, pH recovery in % of maximum recovery, read-out: Residual activity at 30 μM
T1 construct: expressed in transfected cells; host or cells: LAP1 cells (NHE-deficient), stably transfected with pMAMneo plasmid
T1 sequence (P48764 26-834): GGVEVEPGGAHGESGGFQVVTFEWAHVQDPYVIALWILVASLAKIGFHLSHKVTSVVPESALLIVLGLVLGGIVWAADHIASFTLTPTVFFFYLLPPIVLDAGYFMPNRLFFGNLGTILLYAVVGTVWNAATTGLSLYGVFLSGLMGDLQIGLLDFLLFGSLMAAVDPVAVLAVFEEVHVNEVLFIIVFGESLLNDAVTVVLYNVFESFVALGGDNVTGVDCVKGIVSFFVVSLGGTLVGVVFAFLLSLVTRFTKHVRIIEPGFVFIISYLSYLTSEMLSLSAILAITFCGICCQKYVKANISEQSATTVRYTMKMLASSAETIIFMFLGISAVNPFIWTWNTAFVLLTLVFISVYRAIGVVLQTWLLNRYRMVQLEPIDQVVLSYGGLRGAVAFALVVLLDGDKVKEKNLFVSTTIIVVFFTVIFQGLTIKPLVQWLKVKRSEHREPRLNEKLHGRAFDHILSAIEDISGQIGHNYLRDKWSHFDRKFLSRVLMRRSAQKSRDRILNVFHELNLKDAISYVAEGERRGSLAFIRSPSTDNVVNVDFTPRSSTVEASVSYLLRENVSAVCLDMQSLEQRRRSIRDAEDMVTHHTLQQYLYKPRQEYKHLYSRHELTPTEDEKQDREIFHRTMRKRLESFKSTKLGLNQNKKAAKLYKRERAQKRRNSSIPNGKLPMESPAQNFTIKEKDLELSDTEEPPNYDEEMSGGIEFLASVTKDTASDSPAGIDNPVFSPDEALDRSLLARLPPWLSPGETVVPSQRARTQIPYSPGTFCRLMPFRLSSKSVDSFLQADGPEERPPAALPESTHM
Procedure: The absorption of water from the gall bladder is inhibited by inhibition of the apical NHE antiport of the subtype 3 of the gall bladder epithelium, which results in a dilute bile fluid. This dilute bile fluid prevents gallstone formation and, if gallstones are already present, brings about their dissolution. The inhibition of the NHE antiport of the subtype 3 by the compounds of the formula I according to the invention was determined by means of the following test.
Most of the molecular bilology techniques follow protocols from the works “Current Protocols in Molecular Biology (eds. Ausubel, F. M., Brent, R., Kingston, R. E., Moore, D. D., Seidman, J. G., Smith, J. A. and Struhl, K.; John Wiley & Sons)” and “Molecular Cloning: A Laboratory Manual (Sambrock, J., Fritsch, E. F. und Maniatis, T.; Cold Spring Harbor Laboratory Press (1989))”. […] In this test, the increase in the intracellular pH (pHi) after an acidification was determined which commenced with functional NHE even under bicarbonate-free conditions. For this, the pHi was determined using the pH-sensitive fluorescent dye BCECF (Calbiochem, the precursor BCECF-AM is employed). […] The BCECF fluorescence was determined in a “ratio fluorescence spectrometer” (Photon Technology International, South Brunswick, N.J., USA) at excitation wavelengths of 505 and 440 nm and an emission wavelength of 535 nm and converted into the pHi by means of calibration curves. […]

Compound	remaining activity at 30 µM [1] [%]	melting point
C/C(=C\c1cc(F)c(Oc2ccc(CC(=O)NCCO[C@H]3CC[C@@]4(C)[C@@H](C3)C[C@@H](O)[C@@H]3[C@@H]4C[C@H](O)[C@]4(C)[C@@H]([C@H](C)CCC(=O)O)CC[C@@H]34)cc2)c(F)c1)C(=O)N=C(N)N (stereo in doubt) [Example 1, 4-{3-[2-(2-{4-[2,6-Difluoro-4-(3-guanidino-2-methyl-3-oxopropenyl)phenoxy]phenyl}acetylamino)ethoxy]-7,12-dihydroxy-10,13-dimethylhexadecahydro-cyclopenta[a]phenanthren-17-yl}pentanoic acid]	17	
C/C(=C\C(=O)N=C(N)N)c1cc(F)c(Oc2ccc(CC(=O)N[C@H]3CC[C@@]4(C)[C@@H](C3)C[C@@H](O)[C@@H]3[C@@H]4C[C@H](O)[C@]4(C)[C@@H]([C@H](C)CCC(=O)O)CC[C@@H]34)cc2)c(F)c1 (stereo in doubt) [Example 2, 4-[3-(2-{4-[2,6-Difluoro-4-(3-guanidino-1-methyl-3-oxopropenyl)phenoxy]phenyl}acetylamino)-7,12-dihydroxy-10,13-dimethylhexadecahydrocyclopenta[a]phenanthren-17-yl]pentanoic acid]	10	190 °C (dec.)
C[C@H](CCC(=O)O)[C@H]1CC[C@H]2[C@@H]3[C@H](O)C[C@@H]4C[C@@H](OCCNC(=O)c5cccc(-c6ccc(C(=O)N=C(N)N)cc6)c5)CC[C@]4(C)[C@H]3C[C@H](O)[C@]12C (stereo in doubt) [Example 3, 4-(3-{2-[(4′-Guanidinocarbonylbiphenyl-3-carbonyl)amino]ethoxy}-7,12-dihydroxy-10,13-dimethylhexadecahydrocyclopenta[a]phenanthren-17-yl)pentanoic acid]	65	
